# Earlier results, collected in patent US10638990B2, “Sunscreen compositions with improved water resistance of UVA sunscreen active agents” (Edgewell Personal Care Brands, LLC, priority 2015, dated 2020).
# Conditions: calculated partition coefficient between octanol and water
row,Structure (SMILES),Log P @25° C.
1,"CCOCCOC(=O)/C=C/c1ccc(OC)cc1 [Cinoxate, Ethoxyethyl methoxy cinnamate]",2.55
2,"CCOC(=O)c1ccc(N(CC(C)O)CC(C)O)cc1 (stereo not drawn) [Ethyl dihydroxypropyl PABA, Ethyl-4-bis(2-hydroxypropyl-aminobenzoate)]",2.84
3,"CC1CCC(C(C)C)C(OC(=O)c2ccccc2N)C1 (stereo not drawn) [Menthyl anthranilate, Menthyl-O-aminobenzoate]",5.05
